Results published in patent publication US7737127B2, “2-propynyl adenosine analogs having A2A agonist activity and compositions thereof” (University of Virginia Patent Foundation, priority 2001, dated 2010).
Like-named read-outs stand apart in the source and are kept apart here.

Assays:
[1] = test system: human neutrophils; assay: Human neutrophil oxidative activity, luminol-enhanced chemiluminescence; type: cell-based; conditions: for EC50: Homo sapiens, Neutrophil, read-out: PMN oxid (-log EC50) (converted); for EC50 / PMN oxid (-log EC50): human neutrophil experiment w/o Rolipram; for PMN oxid + roli (-log EC50): human neutrophil experiment w/Rolipram
Description: Chemiluminescence Methods: Lumninol enhanced chemiluminescence, a measure of neutrophil oxidative activity, is dependent upon both superoxide production and mobilization of the granule enzyme myeloperoxidase. The light is emitted from unstable high-energy oxygen species such as hypochlorous acid and singlet oxygen generated by activated neutrophils.
The plate was incubated 5 min (37 C) and then fMLP (50 l in HA; final concentration […]) was added to all wells.
Data are presented as peak chemiluminescence as percent of activity in the absence of an adenosine agonist. The EC50 was determined using PRISM software. All compounds were tested with PMNs from three separate donors.
Lummol-enhanced chemiluminescence, a measure of neutrophil oxidative activity, is dependent upon both superoxide production and mobilization of the lysosomal granule enzyme myeloperoxidase. The light is emitted from unstable high-energy oxygen species generated by activated neutrophils. Purified neutrophils (5-10×10^5/ml) were incubated in Hanks balanced salt solution containing 0.1% human serum albumin (1 ml) with the tested A2A agonist with or without rolipram and with or without tumor necrosis factor-alpha (1 U/ml) for 30 minutes at 37° C. in a shaking water bath. […] Chemiluminescence is reported as relative peak light emitted (=height of the curve) compared to samples with tumor necrosis factor-alpha and without agonist or rolipram.

[2] = molecular target: T1, human A1 AR (Homo sapiens, UniProt P30542); assay: Radioligand competition binding (125I-ABA) to human A1 AR in CHO K1 cell membranes; conditions: for Ki: Ki from competition binding, 125I-ABA, CHO K1 cell membranes; for A1/A2A: selectivity ratio A1 over A2A
T1 sequence (P30542 1-326): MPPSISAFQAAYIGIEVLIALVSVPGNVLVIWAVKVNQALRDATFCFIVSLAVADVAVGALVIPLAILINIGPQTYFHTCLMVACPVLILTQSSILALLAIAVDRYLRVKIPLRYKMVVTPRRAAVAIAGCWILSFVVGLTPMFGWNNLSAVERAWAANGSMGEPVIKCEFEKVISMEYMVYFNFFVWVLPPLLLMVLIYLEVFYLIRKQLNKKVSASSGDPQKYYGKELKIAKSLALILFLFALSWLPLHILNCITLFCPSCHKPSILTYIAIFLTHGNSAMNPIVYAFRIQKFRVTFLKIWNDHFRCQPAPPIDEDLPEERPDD
Description: (§1) Sf9 cells were cultured in Grace's medium supplemented with 10% fetal bovine serum, 2.5 μg/ml amphotericin B and 50 μg/ml gentamycin in an atmosphere of 50% N2/50% O2. […] Infected cells were harvested 3 days post-infection and washed twice in insect PBS (PBS pH 6.3). Cells were then resuspended in lysis buffer (20 mM HEPES pH 7.5, 150 mM NaCl, 3 mM MgCl2, 1 mM β-mercaptoethanol (BME), 5 μg/mL leupeptin, 5 μg/mL pepstatin A, 1 μg/mL aprotinin, and 0.1 mM PMSF) and snap frozen for storage at −80° C. Cells were thawed on ice, brought to 30 mL total volume in lysis buffer, and burst by N2 cavitation (600 psi for 20 minutes). A low-speed centrifugation was performed to remove any unlysed cells (1000×g for 10 minutes), followed by a high-speed centrifugation (17,000×g for 30 minutes). The pellet from the final centrifugation was homogenized in buffer containing 20 mM HEPES pH 8, 100 mM NaCl, 1% glycerol, 2 μg/mL leupeptin, 2 μg/mL pepstatin A, 2 μg/mL Aprotinin, 0.1 mM PMSF, and 10 μM GDP using a small glass homogenizer followed by passage through a 26 gauge needle. Membranes were aliquoted, snap frozen in liquid N2, and stored at −80° C.
(§2) Binding experiments were performed in triplicate with 5 μg (A2A) or 25 μg (A1 and A3) membrane protein in a total volume of 0.1 mL HE buffer (20 mM HEPES and 1 mM EDTA) with 1 U/mL adenosine deaminase and 5 mM MgCl2 with or without 50 μM GTPγS. Membranes were incubated with radioligands at room temperature for three hours (for agonists) or two hours (for antagonists) in Millipore Multiscreene® 96-well GF/C filter plates and assays were terminated by rapid filtration on a cell harvester (Brandel, Gaithersburg, Md.) followed by 4×150 μl washes over 30 seconds with ice cold 10 mM Tris-HCl, pH 7.4, 10 mM MgCl2.

[3] = molecular target: T2, A3 AR (Homo sapiens, UniProt P0DMS8); assay: Radioligand competition binding (125I-ABA) to human A3 AR in HEK 293 cell membranes; conditions: for Ki: Ki from competition binding, 125I-ABA, HEK 293 cell membranes; for A3/A2A: selectivity ratio A3 over A2A
T2 sequence (P0DMS8 1-318): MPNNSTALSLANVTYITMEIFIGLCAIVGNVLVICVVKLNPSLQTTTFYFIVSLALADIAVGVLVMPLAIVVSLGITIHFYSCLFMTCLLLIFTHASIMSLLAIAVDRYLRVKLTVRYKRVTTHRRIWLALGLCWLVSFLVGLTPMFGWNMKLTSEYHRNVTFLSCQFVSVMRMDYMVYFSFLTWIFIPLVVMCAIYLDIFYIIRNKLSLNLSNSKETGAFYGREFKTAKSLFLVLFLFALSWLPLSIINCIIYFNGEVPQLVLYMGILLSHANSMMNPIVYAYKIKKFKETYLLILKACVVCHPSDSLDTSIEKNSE
Description: as §1, §2

[4] = molecular target: recombinant human A2A receptors (Homo sapiens, UniProt P29274); assay: Radioligand competition binding to recombinant human A2A receptors in Sf9 cell membranes; conditions: Ki from competition binding, Sf9 cell membranes
Sequence of recombinant human A2A receptors (P29274 whole entry): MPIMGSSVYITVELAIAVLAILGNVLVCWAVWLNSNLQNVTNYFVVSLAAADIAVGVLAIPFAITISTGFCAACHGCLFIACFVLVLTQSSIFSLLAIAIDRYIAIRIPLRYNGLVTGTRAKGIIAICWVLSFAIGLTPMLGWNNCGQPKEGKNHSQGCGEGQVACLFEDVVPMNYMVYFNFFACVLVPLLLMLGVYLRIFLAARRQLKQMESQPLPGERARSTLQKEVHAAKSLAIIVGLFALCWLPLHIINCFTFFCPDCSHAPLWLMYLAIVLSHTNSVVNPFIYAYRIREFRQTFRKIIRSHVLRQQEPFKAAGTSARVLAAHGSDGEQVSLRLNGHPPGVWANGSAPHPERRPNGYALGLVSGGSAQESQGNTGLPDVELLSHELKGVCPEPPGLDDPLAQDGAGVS
Description: as §1, §2

| Structure (SMILES) | EC50 [1] | PMN oxid + roli (-log EC50) [1] | Ki ([2]; A1 ± SEM) | A1/A2A [2] | Ki ([3]; A3 ± SEM) | A3/A2A [3] | Ki ([4]; A2A ± SEM) | PMN oxid (-log EC50) [1] | Ki ([2]; read-out: A1 ± SEM) | Ki ([3]; read-out: A3 ± SEM) | Ki ([4]; read-out: A2A ± SEM) |
| --- | --- | --- | --- | --- | --- | --- | --- | --- | --- | --- | --- |
| CCNC(=O)[C@H]1O[C@@H](n2cnc3c(N)nc(C#CCC4CCC(CC)CC4)nc32)C(O)C1O (stereo in doubt) [JR-3087, 5-{6-Amino-2-[3-(4-ethyl-cyclohexyl)-prop-1-ynyl]-purin-9-yl}-3,4-dihydroxytetrahydrofuran-2-carboxylic acid ethylamide] | 46.8 nM | 8.51 | 20.3 ± 4.5 nM | 9.2 | 17.8 ± 5.5 nM | 8.1 | 2.2 ± 0.2 nM |  |  |  |  |
| CCNC(=O)[C@H]1O[C@@H](n2cnc3c(N)nc(C#CCC4CCC(C(=O)NC)CC4)nc32)C(O)C1O (stereo in doubt) [JR-3065, 5-{6-Amino-2-[3-(4-methylcarbamoyl-cyclohexyl)-prop-1-ynyl]-purin-9-yl}-3,4-dihydroxytetrahydrofuran-2-carboxylic acid ethylamide] | 102 nM | 8.29 | 55 ± 13 nM | 15.3 | 28 ± 13 nM | 7.8 | 3.6 ± 0.5 nM |  |  |  |  |
| CCNC(=O)[C@H]1O[C@@H](n2cnc3c(N)nc(C#CC4(O)CCCCC4C)nc32)C(O)C1O (single isomer, unassigned) [JR-3181A, 5-[6-Amino-2-(1-hydroxy-2-methyl-cyclohexylethynyl)-purin-9-yl]-3,4-dihydroxytetrahydrofuran-2-carboxylic acid ethylamide] |  | 8.77 | 44.9 ± 17.2 nM | 38.1 | 69.7 ± 43 nM | 59.1 | 1.2 ± 0.15 nM | 7.73 |  |  |  |
| CCNC(=O)[C@H]1O[C@@H](n2cnc3c(N)nc(C#CC(O)(C4CCCCC4)C4CCCCC4)nc32)C(O)C1O (stereo in doubt) [JR-3139, 5-[6-Amino-2-(3,3-dicyclohexyl-3-hydroxy-prop-1-ynyl)-purin-9-yl]-3,4-dihydroxytetrahydrofuran-2-carboxylic acid ethylamide] | 4070 nM | 6.75 | 801 ± 99 nM | 4.8 | 83.7 ± 30 nM | 0.5 | 166 ± 42 nM |  |  |  |  |
| CCNC(=O)C1OC(n2cnc3c(N)nc(C#CC(O)C4CCCCC4)nc32)C(O)C1O (single isomer, unassigned) [JR-3159A] |  | 9.34 |  | 1.4 |  | 6.6 |  | 8.43 | 0.9 ± 0.05 nM | 3.9 ± 1.5 nM | 0.6 ± 0.06 nM |
| CCNC(=O)[C@H]1O[C@@H](n2cnc3c(N)nc(C#CC4(O)CCCC(C)(C)C4)nc32)C(O)C1O (stereo in doubt) [JR-3201B, 5-[6Amino-2-(1-hydroxy-3,3-dimethylcyclohexylethynyl)-purin-9-yl]-3,4-dihydroxytetrahydrofuran-2-carboxylic acid ethylamide] | 8.71 nM | 9.2 | 157 ± 14 nM | 98.1 | 23.6 ± 0.35 nM | 14.8 | 1.6 ± 0.28 nM |  |  |  |  |
| CCNC(=O)[C@H]1O[C@@H](n2cnc3c(N)nc(C#CC4(O)CCCCNC4=O)nc32)C(O)C1O (single isomer, unassigned) [JR-3243B, 5-[6-Amino-2-(3-hydroxy-2-oxo-azepan-3-ylethynyl)purin-9-yl]-3,4-dihydroxytetrahydrofuran-2-carboxylic acid ethylamide] |  | 8.91 | 12 ± 5 nM | 5.3 | 3.34 ± 0.48 nM | 1.5 | 2.25 ± 0.35 nM | 7.81 |  |  |  |
| CCNC(=O)[C@H]1O[C@@H](n2cnc3c(N)nc(C#CC4(O)CCCCNC4=O)nc32)C(O)C1O (single isomer, unassigned) [JR-3243A, 5-[6-Amino-2-(3-hydroxy-2-oxo-azepan-3-ylethynyl)purin-9-yl]-3,4-dihydroxytetrahydrofuran-2-carboxylic acid ethylamide] |  | 7.65 | 29.6 ± 4.8 nM | 2.5 | 31.1 ± 7.2 nM | 2.6 | 11.9 ± 1.3 nM | 6.42 |  |  |  |
